In patent US4405642A, “Method for treatment or prophylaxis of cardiac disorders” (American Hospital Supply Corporation, priority 1980, dated 1983):
Counter-ions that a name gives are not always drawn.

Tests used:
[1] = molecular target: T1, β-adrenergic receptors (guinea pig right atria) (Cavia porcellus, UniProt H0W3H1); assay: β-blocking activity in vitro, guinea pig right atria (rate response to isoproterenol); type: cell-based; conditions: vs isoproterenol, guinea pig right atria, 60 minute incubation, 37° C.; for Kb: read-out: pA2 Atria (converted)
T1 construct: Atria were allowed to beat spontaneously under a loading tension; from tissue; host or cells: guinea pig right atria (isolated, spontaneously beating)
T1 sequence (H0W3H1 1-470): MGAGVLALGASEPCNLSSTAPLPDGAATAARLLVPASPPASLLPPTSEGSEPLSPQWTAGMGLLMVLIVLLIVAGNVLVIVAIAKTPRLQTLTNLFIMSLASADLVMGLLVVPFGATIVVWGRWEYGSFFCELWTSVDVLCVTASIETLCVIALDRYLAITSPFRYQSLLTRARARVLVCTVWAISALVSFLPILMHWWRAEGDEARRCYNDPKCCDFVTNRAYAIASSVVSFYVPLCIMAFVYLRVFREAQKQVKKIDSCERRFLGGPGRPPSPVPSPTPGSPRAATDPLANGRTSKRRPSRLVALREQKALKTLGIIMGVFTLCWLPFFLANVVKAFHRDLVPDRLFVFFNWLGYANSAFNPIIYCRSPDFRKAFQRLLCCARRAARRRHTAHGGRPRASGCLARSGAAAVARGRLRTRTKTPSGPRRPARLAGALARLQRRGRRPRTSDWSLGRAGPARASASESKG
Description: (§1) Each tissue was suspended between a fixed glass rod and a Statham® Universal Transducer connected to a Beckman® recorder. Atria were allowed to beat spontaneously under a loading tension of approximately 0.5 gm. Instrinsic depressant or stimulant activity was determined for each compound by progressively increasing concentrations in the tissue baths at 60-minute intervals. Tissues were not washed between increments. The maximum concentration showing little or no cardiodepressant activity was chosen for blockade experiments. Changes in rate in response to isoproterenol were measured in the absence and presence of test compounds. Spiral strips of guinea pig trachea were suspended under 5 gm resting tension and incubated with phentolamine, tropolone and cocaine. Active tension was generated by addition of carbachol (3.0×10^-7 M) and decreases in tension in response to isoproterenol were quantitated. Cumulative concentration-response curves were produced with isoproterenol both before and after 60 minute incubation of test compounds with atria and trachea. The blocking potency of test compounds was estimated by computing pA2 values (-log […]) by the method of Furchgott, The Pharmacological Differentiation of Adrenergic Receptors, Ann. […] The degree of cardioselectivity was estimated from the ratio, KB trachea/KB atria (10^(pA.sbsp.2^atria-pA.sbsp.2^trachea)). A ratio greater than one indicates cardioselectivity. Test drugs were dissolved in distilled water and added to the bath (30 ml) in a volume of 10 or 100 μl.

[2] = test system: β-adrenergic receptors (guinea pig right atria); assay: as above; type: cell-based; conditions: ratio from pA2 atria and trachea; greater than one indicates cardioselectivity
Description: as §1

[3] = molecular target: T2, β-adrenergic receptors (guinea pig tracheal strips) (Cavia porcellus, UniProt Q8K4Z4); assay: β-blocking activity in vitro, guinea pig tracheal strips (tension response to isoproterenol); type: cell-based; conditions: vs isoproterenol, 60 minute incubation, 37° C., read-out: pA2 Trachea (converted)
T2 construct: from tissue; host or cells: guinea pig trachea (isolated spiral strips)
T2 sequence (Q8K4Z4 whole entry): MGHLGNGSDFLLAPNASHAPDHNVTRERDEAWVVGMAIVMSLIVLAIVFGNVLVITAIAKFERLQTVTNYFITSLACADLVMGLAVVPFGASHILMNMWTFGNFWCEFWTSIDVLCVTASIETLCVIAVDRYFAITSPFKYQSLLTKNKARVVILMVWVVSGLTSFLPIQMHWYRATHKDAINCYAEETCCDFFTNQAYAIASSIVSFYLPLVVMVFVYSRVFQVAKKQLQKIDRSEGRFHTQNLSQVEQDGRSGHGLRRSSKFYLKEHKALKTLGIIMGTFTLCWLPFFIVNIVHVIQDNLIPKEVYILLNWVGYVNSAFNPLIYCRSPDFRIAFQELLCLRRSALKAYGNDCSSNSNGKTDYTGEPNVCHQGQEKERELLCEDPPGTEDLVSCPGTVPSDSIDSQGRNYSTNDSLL
Description: as §1

[4] = test system: heart rate response to isoproterenol; assay: Duration of beta-blockade in vivo, anesthetized dogs, 3-hour infusion; conditions: dog; for 80% Recovery Time: after termination of 3-hour infusion; for % I (Percent inhibition of heart rate response to isoproterenol): end of 3-hour infusion, bolus isoproterenol 0.5 μg/kg
Description: (§2) The duration of beta-blockade was determined in vivo using pentobarbitalanesthetized dogs instrumented for measurement of heart rate using a Beckman® cardiotachometer triggered electronically by a phasic aortic blood pressure signal. Both vagus nerves were severed in the cervical region and the animals were mechanically ventilated. Two experimental designs were used. The first employed a 40-minute infusion of test compound and the second used a 3-hour infusion of test compound. In the 40-minute model, isoproterenol was infused into a foreleg vein at the rate of 0.5 μg/kg/min to induce a beta-receptor mediated tachycardia. Various doses of test compound where then infused into a femoral vein over a period of 40 minutes. This infusion was then terminated and recovery from blockade was quantitated. […] This cumulative dose is expressed as mg/kg and is an indication of potency. The time period required for 80% recovery of heart rate for each dose of test drug was also measured to quantitate duration of action. […] Test compounds were dissolved in 0.9% NaCl and infused at a rate of 0.05 ml/kg/min or less. In the 3-hour infusion model, bolus doses of isoproterenol (0.5 μg/kg) were used to assess the degree of beta-blockade and recovery from beta-blockade after termination of the infusion. The doses were spaced at 10-minute intervals and were given before, during and following the infusion of test compounds. The infusion rate was adjusted so that at the end of the 3-hour infusion period the degree of isoproterenol inhibition averaged about 50% of control.

[5] = Disappearance in vitro in human whole blood; type: in vitro ADME; conditions: 50 μg test compound, 37° C., read-out: T1/2 Human Whole Blood
Description: (§3) The rate of disappearance of a compound is expressed as the half-life (T1/2), which is the time period in which one half of the initial amount of compound tested disappears. […] The samples were incubated in a Dubnoff shaking metabolic incubator for 2.5, 5.0, 10.0, 20.0, 30.0 and 60.0 minutes at 37° C. At the designated time periods, the test mixtures were removed from the incubator and transferred to a 0° C. ice bath. Acetonitrile (2 ml) was immediately added and the mixtures were mixed to stop enzymatic hydrolysis. Zero time samples were prepared by adding 2 ml. of acetonitrile to denature the proteins prior to addition of the test compounds. After centrifugation to sediment denatured proteins, 2 ml. of the supernatant was removed and analyzed by high pressure liquid chromatography, using a mobile phase of 60% acetonitrile/40% 0.05 m sodium phosphate buffer (pH 6.6), a U.V. detector and Waters® μ Bondapak Phenyl column. The half life of each test compound was determined graphically by plotting the decrease in concentration as a function of time.

[6] = Disappearance in vitro in dog whole blood; type: in vitro ADME; conditions: 50 μg test compound, 37° C., read-out: T1/2 Dog Whole Blood
Description: as §3

[7] = test system: heart rate response to isoproterenol; assay: Duration of beta-blockade in vivo, anesthetized dogs, 40-minute infusion; parameters: species or system dog; conditions: for Recovery Times 50%: 50% recovery of heart rate after 40-minute infusion; for Recovery Times 50% / Recovery Times 80% / Recovery Times 100%: normalized to 50% inhibition, dog; for Recovery Times 80%: 80% recovery of heart rate after 40-minute infusion; for Recovery Times 100%: 100% recovery of heart rate after 40-minute infusion; for ED50: Canis lupus familiaris, iv, 40 min, read-out: Potency
Description: as §2

COc1ccc(CCNCC(O)COC(=O)c2ccccc2F)cc1OC (centres unmarked) [XXXIII]
Kb [1]: 0.794 µM
Cardioselectivity KB (Trachea)/KB (Atria) [2]: 2.5
Kb [3]: 2 µM

CC(C)NCC(O)COC(=O)c1cccc(N)c1 (centres unmarked) [Example LV]
Kb [1]: 0.398 µM
Kb [3]: 0.158 µM

COc1ccc(CCNCC(O)COC(=O)c2ccccc2)cc1OC (centres unmarked) [Example VII]
Kb [1]: 0.1 µM
Cardioselectivity KB (Trachea)/KB (Atria) [2]: 5
Kb [3]: 0.501 µM
80% Recovery Time [4]: 29 ± 5 min
% I (Percent inhibition of heart rate response to isoproterenol) [4]: 45 ± 2%

CC(C)(C)NCC(O)COC(=O)c1ccc(F)cc1 (centres unmarked) [XL]
half-life [5]: 11 ± 5 min
half-life [6]: 13 min

CC(C)NCC(O)COC(=O)c1ccc(N)cc1 (centres unmarked) [Example LIV, [2-Hydroxy-3-(isopropylamino)]propyl 4-aminobenzoate hydrochloride]
80% Recovery Time [4]: > 60 min
% I (Percent inhibition of heart rate response to isoproterenol) [4]: 80 ± 4%

CC(=O)Nc1ccc(C(=O)OCC(O)CNC(C)C)cc1 (centres unmarked) [Example LXII, [2-Hydroxy-3-(isopropylamino)]propyl 4-(acetamido)benzoate hydrochloride]
Kb [1]: 1.58 µM
Cardioselectivity KB (Trachea)/KB (Atria) [2]: 4
Kb [3]: 6.31 µM

COc1ccc(CCNCC(O)COC(=O)c2ccccc2C)cc1OC (centres unmarked) [XXXI]
80% Recovery Time [4]: > 60 min
% I (Percent inhibition of heart rate response to isoproterenol) [4]: 85%

CC(C)NCC(O)COC(=O)c1ccc(O)cc1 (centres unmarked) [LVI]
Kb [1]: 0.158 µM
Kb [3]: 0.0631 µM
% I (Percent inhibition of heart rate response to isoproterenol) [4]: 79 ± 9%

COc1ccc(CCNCC(O)COC(=O)c2ccc(C)cc2)cc1OC (centres unmarked) [Example XI]
Kb [1]: 0.251 µM
Cardioselectivity KB (Trachea)/KB (Atria) [2]: 4
Kb [3]: 1 µM
Recovery Times 50% [7]: 8 ± 1 min
Recovery Times 80% [7]: 16 ± 2 min
Recovery Times 100% [7]: 25 ± 3 min
ED50 [7]: 17.2 ± 5.8 mg/kg

CC(C)NCC(O)COC(=O)c1ccccc1F (centres unmarked) [XVIII]
Kb [3]: 0.0794 µM
Recovery Times 80% [7]: 8 ± 1 min
ED50 [7]: 1.5 mg/kg
80% Recovery Time [4]: 25 ± 9 min
% I (Percent inhibition of heart rate response to isoproterenol) [4]: 46 ± 5%
half-life [5]: 1.7 ± 0.6 min
half-life [6]: 7 min

COc1ccc(CCNCC(O)COC(=O)c2ccccc2Cl)cc1OC (centres unmarked) [XIII]
Kb [1]: 0.0158 µM
Cardioselectivity KB (Trachea)/KB (Atria) [2]: 2
Kb [3]: 0.0316 µM
Recovery Times 50% [7]: 7 min
Recovery Times 80% [7]: 12 ± 1 min
Recovery Times 100% [7]: 24 min
ED50 [7]: 2 ± 0.6 mg/kg

COc1ccc(CCNCC(O)C(=O)Oc2ccccc2)cc1OC (centres unmarked) [Example I, N-(3,4-Dimethoxyphenethyl)-N-[(2-hydroxy-2-phenoxycarbonyl)ethyl-]amine Hydrochloride]
Kb [1]: 1.26 µM
Cardioselectivity KB (Trachea)/KB (Atria) [2]: 1
Kb [3]: 1.26 µM
Recovery Times 50% [7]: 6 ± 1 min
Recovery Times 80% [7]: 11 ± 1 min
Recovery Times 100% [7]: 16 ± 2 min
ED50 [7]: 3.5 ± 0.5 mg/kg

CCC(C)(C)NCC(O)COC(=O)c1ccccc1F (centres unmarked) [LIII]
Kb [1]: 0.158 µM

CC(C)NCC(O)COC(=O)c1cccc([N+](=O)[O-])c1 (centres unmarked) [Example XXI]
Kb [1]: 0.158 µM
Kb [3]: 0.0631 µM

CC(C)NCC(O)COC(=O)c1cccc(F)c1 (centres unmarked) [XIX]
Kb [3]: 0.1 µM
half-life [5]: 8 ± 4 min
half-life [6]: 50 min

CC(C)NCC(O)COC(=O)c1ccc(F)cc1 (centres unmarked) [Example XX]
Kb [1]: 0.251 µM
Kb [3]: 0.0501 µM
half-life [5]: 3.5 ± 0.9 min
half-life [6]: 4 min

CC(C)NCC(O)COC(=O)c1ccc2ccccc2c1 (centres unmarked) [XVI]
Kb [1]: 0.398 µM
Kb [3]: 0.251 µM

Cc1cccc(C(=O)OCC(O)CNC(C)(C)C)c1 (centres unmarked) [XLII]
half-life [5]: 5.5 ± 2.6 min
half-life [6]: 150 min

CC(C)NCC(O)COc1cccc2ccccc12 (centres unmarked) [Propranolol, reference compound]
Recovery Times 50% [7]: 23 ± 4 min
Recovery Times 80% [7]: 42 ± 8 min
Recovery Times 100% [7]: 58 ± 9 min
80% Recovery Time [4]: > 60 min

CC(C)NCC(O)COC(=O)c1ccc(CO)cc1 (centres unmarked) [Example LXIV, [2-Hydroxy-3(isopropylamino)]propyl 4-(hydroxymethyl)benzoate hydrochloride]
Kb [3]: 0.501 µM

COc1ccc(CCNCC(O)COC(=O)c2cccc(C)c2)cc1OC (centres unmarked) [Example IX]
Recovery Times 50% [7]: 6 ± 1 min
Recovery Times 80% [7]: 10 ± 1 min
Recovery Times 100% [7]: 16 ± 2 min
ED50 [7]: 4.7 ± 1.7 mg/kg

CCCOc1ccccc1C(=O)OCC(O)CNC(C)C (centres unmarked) [XXVII]
Kb [1]: 0.251 µM
80% Recovery Time [4]: > 60 min
% I (Percent inhibition of heart rate response to isoproterenol) [4]: 69%

CC(C)NCC(O)COC(=O)c1ccc(OCc2ccccc2)cc1 (centres unmarked) [XXX]
Kb [1]: > 1 µM

CC(C)(C)NCC(O)COC(=O)c1ccccc1 (centres unmarked) [XXXVII]
Kb [1]: 0.158 µM
Kb [3]: 0.02 µM
80% Recovery Time [4]: > 60 min
% I (Percent inhibition of heart rate response to isoproterenol) [4]: 64 ± 5%
half-life [5]: 5.3 ± 1 min
half-life [6]: 5.5 min

Cc1ccccc1C(=O)OCC(O)CNC(C)(C)C (centres unmarked) [XLI]
half-life [5]: > 180 min
half-life [6]: > 180 min

COc1ccccc1COC(=O)C(O)CNCCc1ccc(OC)c(OC)c1 (centres unmarked) [Example V, 2-Methoxybenzyl 3-[[N-(3,4-Dimethoxyphenethyl)]amino]-2-hydroxypropionate]
pA2 Atria [1]: inactive
Kb [3]: 10 µM
Potency ([7]; cumulative dose over 40-minute infusion, normalized to 50% inhibition of isoproterenol response, dog i.v.): low

COc1ccc(CCNCC(O)COC(=O)c2ccc(F)cc2)cc1OC (centres unmarked) [XXXV]
Kb [1]: 0.1 µM
Cardioselectivity KB (Trachea)/KB (Atria) [2]: 2
Kb [3]: 0.2 µM
80% Recovery Time [4]: > 60 min
% I (Percent inhibition of heart rate response to isoproterenol) [4]: 59%

CC(C)NCC(O)COC(=O)c1cccc2ccccc12 (centres unmarked) [XV]
Kb [1]: 0.251 µM
Kb [3]: 0.1 µM
Recovery Times 50% [7]: 18 min
Recovery Times 80% [7]: 22 min
Recovery Times 100% [7]: 38 min
ED50 [7]: 1.5 mg/kg
80% Recovery Time [4]: > 60 min
% I (Percent inhibition of heart rate response to isoproterenol) [4]: 54%

COc1ccc(CCNCC(O)COC(=O)c2ccc(CO)cc2)cc1OC (centres unmarked) [LXVI, [2-Hydroxy-3-[(N3,4-dimethoxyphenethyl)amino]propyl 4-(hydroxymethyl) benzoate oxalate]
Kb [1]: > 3.16 µM

CCCNCC(O)COC(=O)c1ccc(N)cc1 (centres unmarked) [LXV, [2-Hydroxy-3-(n-propyl)amino]propyl 4-aminobenzoate oxalate]
Kb [1]: 1.26 µM

COc1ccc(CCNCC(O)C(=O)Oc2ccccc2C)cc1OC (centres unmarked) [II]
Kb [1]: 1.26 µM

Cc1cccc(C(=O)OCC(O)CNC(C)C)c1 (centres unmarked) [Example VIII]
Kb [1]: 0.158 µM
Kb [3]: 0.0501 µM
Recovery Times 50% [7]: 7 ± 1 min
Recovery Times 80% [7]: 14 ± 3 min
Recovery Times 100% [7]: 20 ± 4 min
ED50 [7]: 1.83 ± 0.11 mg/kg

COc1ccc(CCNCC(O)COC(=O)c2cccc(F)c2)cc1OC (centres unmarked) [XXXIV]
Kb [1]: 0.398 µM
Cardioselectivity KB (Trachea)/KB (Atria) [2]: 2
Kb [3]: 0.631 µM
